Assays:
[1] = target: T1, EZH2/SUZ/EED (Homo sapiens, UniProt O75530+Q15022+Q15910); experiment: Inhibitory effect on EZH2 by the MTase-Glo method (Test Example 1); type: biochemical; details: EZH2/SUZ/EED 6.25 nM, H3 peptide 10 μM, SAM 3 μM, 30° C. 3 h, read-out: Test Example 1 WT EZH2 IC50
T1 construct: purchased BPS 51003
Method: (§1) The compound was dissolved in DMSO, and the compound was serially diluted using ECHO665 and transferred to a 384-well reaction plate (Corning, 3824). A sample containing only DMSO was added as a positive control (maximum signal control) and a negative control (minimum signal control), while ensuring that the final DMSO content in each reaction well was 0.5%. The protein was configured in reaction buffer (50 mM Bicine, 0.01% Triton X-100, 1 mM DTT, 0.01% BSA, pH 7.6), such that the final reaction concentrations of EZH2/SUZ/EED (BPS, 51003) protein solution and EZH1/SUZ/EED (BPS, 51006) were 6.25 nM and 25 nM, respectively. The negative control (minimum signal control) used an equal amount of buffer instead of protein solution. The prepared protein solution was added to the 384-well reaction plate and pre-incubated at room temperature for 15 minutes. The mixture of the substrate H3 peptide fragment (custom-synthesized by GenScript, biotinylated Histone H3(21-44) peptide ([…]-GG-K(Biotin)-OH)) prepared in the reaction buffer and SAM (Promega, V7601) was added into the 384-well plate, such that the final reaction concentration of H3 peptide fragment was 10 μM, and the final concentration of SAM was 3 μM. The mixture was centrifuged at 1000 rpm for 1 min. The 384-well reaction plate was placed in a constant temperature shaker and incubate at 30° C. for 3 h at a speed of 300 rpm. Then the detection reagent was added according to the experimental process of the kit MTase-Glo (Promega, V7601) and incubated.
(§2) After incubation, read with BMG PHERAStar. The luminescence signals obtained by positive control (maximum signal control) and negative control (minimum signal control) were normalized to obtain the inhibition rate of different concentrations of compounds. Then, the IC50 of the compound on the enzyme activity inhibition was calculated by GraphPad Prism 6 with log(inhibitor) vs. response-Variable slope model fitting. The fitting equation is: Y=Bottom+(Top−Bottom)/(1+10^((Log IC50−X)*HillSlope)), wherein Y represents the known percentage remaining enzyme activity, and X represents the known activity after Log compound concentration.

[2] = target: T2, EZH1/SUZ/EED (Homo sapiens, UniProt O75530+Q15022+Q92800); experiment: Inhibitory effect on EZH1 by the MTase-Glo method (Test Example 1); type: biochemical; details: EZH1/SUZ/EED 25 nM, H3 peptide 10 μM, SAM 3 μM, 30° C. 3 h, read-out: Test Example 1 WT EZH1 IC50
T2 construct: purchased BPS 51006
T2 sequence (Q92800 2-747 limits assumed): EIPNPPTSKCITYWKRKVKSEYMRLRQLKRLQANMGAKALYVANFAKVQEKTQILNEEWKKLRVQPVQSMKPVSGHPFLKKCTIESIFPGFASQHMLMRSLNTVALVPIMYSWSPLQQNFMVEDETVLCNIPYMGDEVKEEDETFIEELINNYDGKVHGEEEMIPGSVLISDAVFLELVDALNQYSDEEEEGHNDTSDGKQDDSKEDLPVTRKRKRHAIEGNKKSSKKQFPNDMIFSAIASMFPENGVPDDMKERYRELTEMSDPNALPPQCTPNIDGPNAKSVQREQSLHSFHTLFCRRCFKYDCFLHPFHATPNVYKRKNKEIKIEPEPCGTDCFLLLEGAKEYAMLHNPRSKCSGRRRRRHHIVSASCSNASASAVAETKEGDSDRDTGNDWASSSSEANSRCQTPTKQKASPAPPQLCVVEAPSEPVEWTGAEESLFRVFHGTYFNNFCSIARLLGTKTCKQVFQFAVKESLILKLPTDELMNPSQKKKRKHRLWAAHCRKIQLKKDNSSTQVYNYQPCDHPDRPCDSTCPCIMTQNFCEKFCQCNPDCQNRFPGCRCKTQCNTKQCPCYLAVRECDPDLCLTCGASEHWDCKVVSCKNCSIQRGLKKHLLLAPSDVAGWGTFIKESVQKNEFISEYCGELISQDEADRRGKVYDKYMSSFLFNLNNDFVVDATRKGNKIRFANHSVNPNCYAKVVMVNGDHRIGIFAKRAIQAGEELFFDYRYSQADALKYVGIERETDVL
T2 sequence (Q15022 2-739 partner limits assumed): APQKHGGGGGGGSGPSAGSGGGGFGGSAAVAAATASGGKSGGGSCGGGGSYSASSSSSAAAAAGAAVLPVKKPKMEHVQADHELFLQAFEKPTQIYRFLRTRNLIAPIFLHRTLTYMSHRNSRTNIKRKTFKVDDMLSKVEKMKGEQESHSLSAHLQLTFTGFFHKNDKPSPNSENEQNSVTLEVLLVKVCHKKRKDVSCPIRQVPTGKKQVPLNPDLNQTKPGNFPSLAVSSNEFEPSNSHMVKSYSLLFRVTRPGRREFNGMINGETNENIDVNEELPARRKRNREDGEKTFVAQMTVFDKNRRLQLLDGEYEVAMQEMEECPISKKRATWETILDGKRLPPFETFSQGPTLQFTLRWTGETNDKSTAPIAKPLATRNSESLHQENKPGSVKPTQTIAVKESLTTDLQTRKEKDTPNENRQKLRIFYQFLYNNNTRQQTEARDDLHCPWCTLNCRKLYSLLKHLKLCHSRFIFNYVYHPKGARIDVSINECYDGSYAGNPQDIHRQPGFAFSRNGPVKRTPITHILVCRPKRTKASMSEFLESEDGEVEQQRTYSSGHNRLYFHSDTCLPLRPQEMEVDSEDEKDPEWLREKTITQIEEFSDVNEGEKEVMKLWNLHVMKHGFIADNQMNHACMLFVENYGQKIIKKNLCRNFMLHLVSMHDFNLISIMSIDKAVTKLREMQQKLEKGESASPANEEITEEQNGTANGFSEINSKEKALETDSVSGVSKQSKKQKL
T2 sequence (O75530 2-441 partner limits assumed): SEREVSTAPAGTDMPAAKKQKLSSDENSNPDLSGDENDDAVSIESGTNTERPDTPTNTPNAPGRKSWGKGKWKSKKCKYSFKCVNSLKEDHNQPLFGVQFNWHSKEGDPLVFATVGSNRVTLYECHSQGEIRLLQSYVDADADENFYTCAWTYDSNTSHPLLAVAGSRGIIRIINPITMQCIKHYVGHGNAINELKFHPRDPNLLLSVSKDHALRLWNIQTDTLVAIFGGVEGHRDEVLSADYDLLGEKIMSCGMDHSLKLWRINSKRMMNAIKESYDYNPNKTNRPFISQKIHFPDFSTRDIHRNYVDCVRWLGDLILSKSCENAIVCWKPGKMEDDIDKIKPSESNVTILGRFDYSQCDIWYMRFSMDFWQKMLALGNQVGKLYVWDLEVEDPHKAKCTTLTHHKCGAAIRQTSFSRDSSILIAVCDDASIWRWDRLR
Method: as §1, §2

T1 sequence (Q15910 2-746 limits assumed): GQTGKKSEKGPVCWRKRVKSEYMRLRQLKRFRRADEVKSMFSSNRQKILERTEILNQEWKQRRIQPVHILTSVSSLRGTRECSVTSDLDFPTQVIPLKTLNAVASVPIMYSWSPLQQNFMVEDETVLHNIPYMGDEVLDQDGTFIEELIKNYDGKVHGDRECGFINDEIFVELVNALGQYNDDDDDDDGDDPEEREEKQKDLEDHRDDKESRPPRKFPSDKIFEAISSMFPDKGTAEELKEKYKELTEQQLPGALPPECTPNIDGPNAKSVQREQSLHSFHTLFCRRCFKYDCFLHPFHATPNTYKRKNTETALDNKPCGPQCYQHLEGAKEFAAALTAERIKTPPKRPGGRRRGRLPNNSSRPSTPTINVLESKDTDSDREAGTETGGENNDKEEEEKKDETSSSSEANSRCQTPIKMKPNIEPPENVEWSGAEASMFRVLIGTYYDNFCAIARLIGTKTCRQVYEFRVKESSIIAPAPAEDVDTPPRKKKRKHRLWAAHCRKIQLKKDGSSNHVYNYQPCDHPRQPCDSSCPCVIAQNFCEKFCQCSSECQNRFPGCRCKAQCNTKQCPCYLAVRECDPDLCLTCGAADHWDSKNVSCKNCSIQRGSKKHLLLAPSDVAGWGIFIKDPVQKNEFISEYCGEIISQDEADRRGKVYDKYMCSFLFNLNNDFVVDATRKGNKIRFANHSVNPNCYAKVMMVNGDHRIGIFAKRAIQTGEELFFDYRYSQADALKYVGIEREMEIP
T1 sequence (Q15022 2-739 partner limits assumed): as the sequence (Q15022 2-739 partner limits assumed) above
T1 sequence (O75530 2-441 partner limits assumed): as the sequence (O75530 2-441 partner limits assumed) above

Structure (SMILES)	IC50 [1] [nM]	IC50 [2] [nM]
COc1cc(C)[nH]c(=O)c1CNC(=O)c1cc(Cl)c2c(c1C)O[C@H]([C@H]1CC[C@@H](N3CC(OC)C3)CC1)CO2 [Compound 100]	128	–
Cc1cc(C)c(CNC(=O)c2cc(Cl)c3c(c2C)OC(C2CCC(NC4CC(F)(F)C4)CC2)CO3)c(=O)[nH]1 (single isomer, unassigned) [Compound 66]	24.4	687
Cc1cc(C)c(CNC(=O)c2cc(Cl)c3c(c2Cl)OC[C@@H]([C@H]2CC[C@H](N(C)C)CC2)O3)c(=O)[nH]1 [Compound 148]	67.1	2830
COc1c(Cl)c2c(c(C)c1C(=O)NCc1c(C)cc(C)[nH]c1=O)O[C@@H]([C@H]1CC[C@H](N(C)C)CC1)CO2 [Compound 135]	80.1	5600
COC1CN([C@H]2CC[C@@H]([C@H]3COc4c(Cl)cc(C(=O)NCc5c([S+](C)[O-])cc(C)[nH]c5=O)c(C)c4O3)CC2)C1 (stereo partly drawn) [Compound 139]	1260	8490
Cc1cc(C)c(CNC(=O)c2cc(Cl)c3c(c2C)O[C@H](C2CCN(CC4COC4)CC2)CO3)c(=O)[nH]1 [Compound 87]	780	–
COC1C[N+]([O-])([C@H]2CC[C@@H]([C@H]3COc4c(Cl)cc(C(=O)NCc5c([S+](C)[O-])cc(C)n(O)c5=O)c(C)c4O3)CC2)C1 (stereo partly drawn) [Compound 136]	42.5	192
COc1cc(C)[nH]c(=O)c1CNC(=O)c1cc(Cl)c2c(c1Cl)O[C@@H]([C@H]1CC[C@H](N3CC(OC)C3)CC1)CO2 [Compound 152]	–	126
Cc1cc(C)c(CNC(=O)c2cc(Cl)c3c(c2C)O[C@H]([C@H]2CC[C@@H](N4CC5COCC5C4)CC2)CO3)c(=O)[nH]1 (stereo partly drawn) [Compound 74]	998	> 10000
Cc1cc(C)c(CNC(=O)c2cc(Cl)c3c(c2C)O[C@H](C2CCN(C4COC4)CC2)CO3)c(=O)[nH]1 [Compound 89]	1840	–
COc1cc(C)[nH]c(=O)c1CNC(=O)c1cc(Cl)c2c(c1C)O[C@@H]([C@H]1CC[C@@H](N3CC4CC4C3)CC1)CO2 (stereo partly drawn) [Compound 113]	9.4	91.2
COc1cc(C)[nH]c(=O)c1CNC(=O)c1cc(Cl)c2c(c1C)O[C@@H]([C@H]1CC[C@@H](N3CC4COCC4C3)CC1)CO2 (stereo partly drawn) [Compound 95]	11.6	227
COC1CN([C@H]2CC[C@H]([C@H]3COc4c(C#N)cc(C(=O)NCc5c(SC)cc(C)[nH]c5=O)c(C)c4O3)CC2)C1 [Compound 154]	4.2	30
COc1c(Cl)c2c(c(C)c1C(=O)NCc1c(C)cc(C)[nH]c1=O)O[C@@H]([C@H]1CC[C@@H](N(C)C)CC1)CO2 [Compound 134]	6.6	125
CSc1cc(C)[nH]c(=O)c1CNC(=O)c1cc(Cl)c2c(c1C)O[C@H]([C@H]1CC[C@@H](N3CC(OC4CC4)C3)CC1)CO2 [Compound 13]	17.7	–
COc1cc(C)[nH]c(=O)c1CNC(=O)c1cc(Cl)c2c(c1C)O[C@@H]([C@H]1CC[C@@H](N3CC4(CC4)C3)CC1)CO2 [Compound 111]	13.4	27.3
Cc1cc(C)c(CNC(=O)c2cc(Cl)c3c(c2C)OC(C2CCN(C4COC4)CC2)CO3)c(=O)[nH]1 (stereo not drawn) [Compound 84]	11	–
Cc1cc(C)c(CNC(=O)c2c(C)c3c(c(Cl)c2F)OC[C@H]([C@H]2CC[C@H](N(C)C)CC2)O3)c(=O)[nH]1 [Compound 132]	7.3	722
Cc1cc(C)c(CNC(=O)c2ccc3c(c2C)COC(C)(C2CCC(N(C)C)CC2)O3)c(=O)[nH]1 (stereo not drawn) [Compound 4]	7210	–
[2H]C([2H])([2H])Sc1cc(C)[nH]c(=O)c1CNC(=O)c1cc(Cl)c2c(c1C)O[C@@H](C1CCC(N3CC(OC)C3)CC1)CO2 (stereo partly drawn) [Compound 177]	1.5	2.3
COC1(C(F)(F)F)CN(C2CCC(C3COc4c(Cl)cc(C(=O)NCc5c(C)cc(C)[nH]c5=O)c(C)c4O3)CC2)C1 (single isomer, unassigned) [Compound 69]	84.6	879
COC1C2CN([C@H]3CC[C@H]([C@H]4COc5c(Cl)cc(C(=O)NCc6c(SC)cc(C)[nH]c6=O)c(C)c5O4)CC3)CC21 (stereo partly drawn) [Compound 44]	–	13.5
CON=C1CCC([C@H]2COc3c(Cl)cc(C(=O)NCc4c(C)cc(C)[nH]c4=O)c(C)c3O2)CC1 (stereo partly drawn) [Compound 93]	6	132

Structure (SMILES)	IC50 [1] [nM]	IC50 [2] [nM]
Cc1cc(C2CC2)c(CNC(=O)c2cc(Cl)c3c(c2C)O[C@@H]([C@H]2CC[C@H](N(C)C)CC2)CO3)c(=O)[nH]1 [Compound 158]	–	3440
Cc1cc(C)c(CNC(=O)c2cc(Cl)c3c(c2Cl)O[C@@H]([C@H]2CC[C@H](N(C)C)CC2)CO3)c(=O)[nH]1 [Compound 144]	15.6	769
COc1cc(C)[nH]c(=O)c1CNC(=O)c1cc(Cl)c2c(c1C)O[C@@H]([C@H]1CC[C@H](N3CC4COCC4C3)CC1)CO2 (stereo partly drawn) [Compound 96]	7	167
COc1cc(C)[nH]c(=O)c1CNC(=O)c1cc(Cl)c2c(c1C)O[C@H]([C@H]1CC[C@H](N3CC(OC)C3)CC1)CO2 [Compound 99]	93.4	–
COc1c(Cl)c2c(c(C)c1C(=O)NCc1c(C)cc(C)[nH]c1=O)O[C@@H](C1CCC(N(C)C)CC1)CO2 (mixture of isomers) [Compound 133]	16.6	584
COCCOC1CN([C@H]2CC[C@H]([C@H]3COc4c(Cl)cc(C(=O)NCc5c(OC)cc(C)[nH]c5=O)c(C)c4O3)CC2)C1 [Compound 102]	2.6	655
CO[C@@H]1CCN([C@H]2CC[C@@H]([C@H]3COc4c(Cl)cc(C(=O)NCc5c(SC)cc(C)[nH]c5=O)c(C)c4O3)CC2)C1 [Compound 41]	4.3	3.9
Cc1cc(C)c(CNC(=O)c2cc(Cl)c3c(c2C)OC(C2CCC(NC4CC(F)C4)CC2)CO3)c(=O)[nH]1 (single isomer, unassigned) [Compound 65]	29.7	641
CSc1cc(C)[nH]c(=O)c1CNC(=O)c1cc(C#N)c2c(c1C)O[C@@H]([C@H]1CC[C@H](N3CC(OC4CC4)C3)CC1)CO2 [Compound 160]	–	31.6
COc1cc(C)[nH]c(=O)c1CNC(=O)c1cc(Cl)c2c(c1C)O[C@@H](C1CCC(OCCF)CC1)CO2 (stereo partly drawn) [Compound 123]	–	84
[2H]C([2H])([2H])Sc1cc(C)[nH]c(=O)c1CNC(=O)c1cc(Cl)c2c(c1C)O[C@@H](C1CCC(N3CC(OC)C3)CC1)CO2 (stereo partly drawn) [Compound 178]	–	17.5
CON(C)C1CCC(C2COc3c(Cl)cc(C(=O)NCc4c(C)cc(C)[nH]c4=O)c(C)c3O2)CC1 (single isomer, unassigned) [Compound 79]	2	–
Cc1cc(C)c(CN(C)C(=O)c2cc(Cl)c3c(c2C)O[C@@H]([C@H]2CC[C@@H](N(C)C)CC2)CO3)c(=O)[nH]1 [Compound 127]	25.5	–
Cc1cc(C)c(CNC(=O)c2cc(Cl)c3c(c2C)OC(C2CCN(CC4COC4)CC2)CO3)c(=O)[nH]1 (stereo not drawn) [Compound 83]	8.2	–
CSc1cc(C)[nH]c(=O)c1CNC(=O)c1cc(C#N)c2c(c1C)O[C@@H]([C@H]1CC[C@H](N3CC(OCCF)C3)CC1)CO2 [Compound 162]	–	29.3
Cc1cc(C2CC2)c(CNC(=O)c2cc(Cl)c3c(c2C)O[C@@H]([C@H]2CC[C@@H](N(C)C)CC2)CO3)c(=O)[nH]1 [Compound 157]	–	190
COc1cc(C)[nH]c(=O)c1CNC(=O)c1cc(Cl)c2c(c1C)O[C@@H]([C@H]1CC[C@H](N3CC4CC4C3)CC1)CO2 (stereo partly drawn) [Compound 114]	–	267
COc1cc(C)[nH]c(=O)c1CN(C)C(=O)c1cc(Cl)c2c(c1C)O[C@@H]([C@H]1CC[C@@H](N(C)C)CC1)CO2 [Compound 129]	3.9	–
COc1cc(C)[nH]c(=O)c1CNC(=O)c1cc(Cl)c2c(c1C)O[C@@H]([C@H]1CC[C@H](N3CC4(CC4)C3)CC1)CO2 [Compound 112]	–	49.9
Cc1cc(C)c(CNC(=O)c2cc(Cl)c3c(c2C)OC(C2CCN(C(C)C)CC2)CO3)c(=O)[nH]1 (stereo not drawn) [Compound 82]	85.1	–
COc1cc(C)[nH]c(=O)c1CNC(=O)c1cc(Cl)c2c(c1C)O[C@@H]([C@H]1CC[C@H](N3CC4C(C3)C4OC)CC1)CO2 (stereo partly drawn) [Compound 116]	–	156
CSc1cc(C)[nH]c(=O)c1CNC(=O)c1cc(Cl)c2c(c1C)O[C@@H]([C@H]1CC[C@H](N3CC(OC4CC4)C3)CC1)CO2 [Compound 10]	158	–

From patent US20260184697A1, “EZH1/2 INHIBITOR, PREPARATION THEREOF, AND USE THEREOF IN ANTI-TUMOR THERAPY” (JIANGSU TASLY DIYI PHARMACEUTICAL CO., LTD., priority 2022, published 2026)
